Test results: patent US9180163B2, “Parstatin peptides” (priority 2009, dated 2015)

What was measured:
[1] = system: corneal neovascularization in Sprague-Dawley rats; experiment: chemical burn-induced corneal neovascularization, image analysis; type: in vivo, rat; conditions: 2×50 μg subconjunctival, day 7
Excerpt: Parstatin (1-41), hydrophobic parstatin (1-26) fragment and hydrophilic parstatin (24-41) fragment were used in an in vivo rat model of corneal neovascularization. In particular, chemical burn-induced corneal trauma was used to generate corneal neovascularization as a preclinical disease model simulating a plethora of corneal diseases associated with abnormal formation of new blood vessels. The cornea is normally an avascular tissue that can be stimulated to undergo pathological neoangiogenesis in response to mechanical or chemical injuries, pterygium, herpetic keratitis, etc. In this model, an inflammatory response is considered an important prerequisite for neovascularization. This model is widely accepted and is one of the most extensively studied models, which provides an in vivo environment to study this complex process with convenient access to the corneal tissue and the highly visible developing vasculature.
Pathogen-free male Sprague-Dawley rats (250-300 gr) were treated in accordance with the Association for Research in Vision and Ophthalmology Statement for the Use of Animals in Ophthalmic and Vision Research and the guidelines of the Animal Care and Use Committee at local University Medical School. […] The corneal neovascularization was assessed using a semiautomatic program, which was developed in MATLAB 7.5. […]

[2] = system: retinal neovascularization in C57BL/6 mice; type: in vivo; conditions: 5 μg intravitreal P12 and P15; P17; vs vehicle (PBS or DMSO)
Excerpt: Parstatin (1-41), hydrophobic parstatin (1-26) fragment and hydrophilic parstatin (24-41) fragment were used in an in vivo mouse model of retinal neovascularization. In particular, oxygen-induced retinopathy was used to generate retinal neovascularization as a preclinical disease model for retinopathy of prematurity and other retinal neovascular diseases such as diabetic retinopathy. In this model, exposing newborn mice to hyperoxia prompts regression or delay of retinal vascular development, followed by abnormal angiogenesis after their return to normal oxygen levels. Mainly, this model mirrors the events that occur during retinopathy of prematurity, when infants are removed from oxygen-rich incubators, a condition involving pathological neovascularization that can affect premature infants and result in permanent visual loss. In recent years, the use of this model has been extended to the general study of ischemic vasculopathies, such us diabetic retinopathy, and related antiangiogenic interventions, and it is now used extensively in both basic and applied research environments.
Pathogen-free C57BL/6 mice were treated in accordance with the Association for Research in Vision and Ophthalmology Statement for the Use of Animals in Ophthalmic and Vision Research and the guidelines of the Animal Care and Use Committee at local University Medical School. Litters of 7-day old (P7) mice were exposed to an atmosphere of 75% oxygen in an airtight incubator for 5 days (P12), after which they were returned to room air for 5 days (P17). For quantification of oxygen-induced retinal neovascularization, mice on P17 were given an intraocular injection of 1 μl of rat anti-mouse platelet endothelial cell adhesion molecule-1 (PECAM-1) antibody (Pharmingen, San Jose, Calif.) under a dissecting microscope with Harvard pump microinjection apparatus. Mice were euthanized 12 hours after injection and eyes were fixed in PBS-buffered formalin for 5 hours. […] Retinal flat mounts were prepared and assessed with fluorescence microscope using imaging software. […]

[3] = system: corneas of Sprague-Dawley rats; experiment: corneal histopathology after chemical burn (vessels, neutrophils); type: in vivo, rat; conditions: 2×50 μg, day 7
Protocol: After the above-described processes were performed, the rats were sacrificed (7 days) and the eyes were excised. All eyes were sectioned (4 μm) and stained with hematoxylin-eosin. Two independent pathologists, in a blinded manner, evaluated the microvessel density and the inflammatory cell infiltration in each slide. Total corneal vascular vessels and neutrophils were counted at 200× in seven representative stained tissue sections for each eye, covering all cornea area and having a similar distance from the central burn.

[4] = system: VEGF-induced retinal leukostasis in C57BL/6J mice; experiment: VEGF-induced retinal leukostasis model; type: in vivo, mouse; conditions: for reduction of firmly adhering leukocytes vs VEGF-treated controls: 5 μg co-injected with VEGF; for firmly adhering leukocytes: 5 μg co-injected with VEGF (10 μM), 6 h
Protocol: Inflammatory leukocyte accumulation is a common feature of major ocular diseases. […] VEGF, which is a potent chemoattractant for leukocytes, is increased in ischemic retina and is necessary for retinal neovascularization to occur. Parstatin (1-41), hydrophobic parstatin (1-26) fragment and hydrophilic parstatin (24-41) fragment were used in an in vivo mice model of VEGF-induced retinal leukostasis.
C57BL/6J (4-5 week-old) mice were anesthetized with ketamine hydrochloride (100 mg/kg body weight) and xylazine (4 mg/Kg body weight) and the pupils were dilated with 1% tropicamide. Intravitreal injections of 1 μl solutions of 10 μM VEGF, which is the optimal concentration for promoting leukostasis, or parstatin (1-41) or parstatin (24-41) in phosphate buffered saline (PBS) or PBS alone or the combinations were administered. Also, intravitreal injections of 1 μl solutions of parstatin (1-26) in dimethyl sulphoxide (DMSO) or DMSO alone were administered to assess leukostasis. Six hours after intravitreal injections, which was the optimal time determined for VEGF-induced leukostasis, animals were perfused with PBS to remove intravascular content, including nonadherent leukocytes. Perfusion with FITC-conjugated Concanavalin A (40 μg/ml in PBS, Vector Labs, Burlingame, Calif.) was then performed to label adherent leukocytes and vascular endothelial cells, followed by removal of residual unbound lectin with PBS perfusion. Retinal flat mounts were prepared and examined with the Axioskop microscope and images were digitized. The total numbers of leukocytes adhering to the retinal vessels were counted at 200× by the same investigator, with the investigator being masked as to the nature of the specimen.

Sequence | inhibition of corneal neovascularization [1] [%] | inhibition of retinal neovascularization [2] [%] | inhibition of corneal mean number of vascular vessels [3] [%] | inhibition of mean number of infiltrated neutrophils [3] [%] | reduction of firmly adhering leukocytes vs VEGF-treated controls [4] [%] | firmly adhering leukocytes [4] [cells/retina]
MGPRRLLLVAACFSLCGPLLSARTRA (listed as Homo sapiens) [parstatin (1-26)] | 50 | 65 | 55 | 71 | 59 | 74±32
TRARRPESKATNATLDPR (listed as Homo sapiens) [parstatin (24-41), 24-41 (18 amino acids) of human parstatin, hydrophilic fragment] | 60 | 69 | 68 | 75 | 55 | 81±21
